Reference: patent US20050261298A1, “Methods of treating conditions associated with an Edg-7 receptor” (priority 2002, published 2005)

What was measured:
[1] = molecular target: T1, Edg-1 (Homo sapiens, UniProt P21453); assay: Calcium mobilization assay (FLIPR), inhibition of S1P-stimulated calcium increase; format: cell-based; settings: HTC cells expressing Edg-1
T1 construct: expressed in transfected cells; host or cells: HTC rat hepatoma cells

[2] = molecular target: T2, Edg-5 (Homo sapiens, UniProt O95136); assay: as above; format: cell-based; settings: HTC cells expressing Edg-5
T2 construct: expressed in transfected cells; host or cells: HTC rat hepatoma cells
T2 sequence (O95136 whole entry): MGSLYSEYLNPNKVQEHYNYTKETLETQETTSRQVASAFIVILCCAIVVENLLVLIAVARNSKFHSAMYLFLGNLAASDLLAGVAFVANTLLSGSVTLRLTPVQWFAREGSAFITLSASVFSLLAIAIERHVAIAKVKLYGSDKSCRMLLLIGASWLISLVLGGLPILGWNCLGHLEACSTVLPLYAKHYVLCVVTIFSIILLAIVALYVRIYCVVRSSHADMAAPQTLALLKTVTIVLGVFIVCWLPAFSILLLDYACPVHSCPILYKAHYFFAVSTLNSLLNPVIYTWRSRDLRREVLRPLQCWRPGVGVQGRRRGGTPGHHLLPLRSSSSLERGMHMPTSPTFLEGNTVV

[3] = molecular target: T3, Edg-2 (Homo sapiens, UniProt Q92633); assay: Calcium mobilization assay (FLIPR), inhibition of LPA-stimulated calcium increase; format: cell-based; settings: HTC cells expressing Edg-2
T3 construct: expressed in transfected cells; host or cells: HTC rat hepatoma cells
T3 sequence (Q92633 whole entry): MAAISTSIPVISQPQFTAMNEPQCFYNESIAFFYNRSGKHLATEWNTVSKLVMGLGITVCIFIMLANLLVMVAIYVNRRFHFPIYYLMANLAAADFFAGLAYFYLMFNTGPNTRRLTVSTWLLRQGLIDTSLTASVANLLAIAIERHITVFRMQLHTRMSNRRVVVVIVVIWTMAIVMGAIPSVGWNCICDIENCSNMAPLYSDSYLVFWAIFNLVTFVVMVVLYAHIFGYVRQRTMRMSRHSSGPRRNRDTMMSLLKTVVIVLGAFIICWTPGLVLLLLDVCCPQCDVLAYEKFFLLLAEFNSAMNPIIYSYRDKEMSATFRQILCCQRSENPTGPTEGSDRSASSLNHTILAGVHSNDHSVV

[4] = molecular target: T4, Edg-6 (Homo sapiens, UniProt O95977); assay: Calcium mobilization assay (FLIPR), inhibition of S1P-stimulated calcium increase; format: cell-based; settings: HTC cells expressing Edg-6
T4 construct: expressed in transfected cells; host or cells: HTC rat hepatoma cells
T4 sequence (O95977 1-384): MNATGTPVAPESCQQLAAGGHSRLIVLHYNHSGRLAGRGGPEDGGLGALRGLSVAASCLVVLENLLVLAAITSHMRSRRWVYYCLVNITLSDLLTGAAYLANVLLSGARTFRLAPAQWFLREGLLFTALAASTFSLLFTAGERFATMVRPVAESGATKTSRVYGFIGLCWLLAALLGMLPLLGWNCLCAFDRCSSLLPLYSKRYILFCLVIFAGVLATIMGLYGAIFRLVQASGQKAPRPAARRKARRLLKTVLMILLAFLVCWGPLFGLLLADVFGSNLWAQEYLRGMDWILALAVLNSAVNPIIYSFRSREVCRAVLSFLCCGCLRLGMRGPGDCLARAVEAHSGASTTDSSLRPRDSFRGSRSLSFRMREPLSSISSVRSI

[5] = molecular target: T5, Edg-3 (Homo sapiens, UniProt Q99500); assay: as above; format: cell-based; settings: HTC cells expressing Edg-3
T5 construct: expressed in transfected cells; host or cells: HTC rat hepatoma cells
T5 sequence (Q99500 whole entry): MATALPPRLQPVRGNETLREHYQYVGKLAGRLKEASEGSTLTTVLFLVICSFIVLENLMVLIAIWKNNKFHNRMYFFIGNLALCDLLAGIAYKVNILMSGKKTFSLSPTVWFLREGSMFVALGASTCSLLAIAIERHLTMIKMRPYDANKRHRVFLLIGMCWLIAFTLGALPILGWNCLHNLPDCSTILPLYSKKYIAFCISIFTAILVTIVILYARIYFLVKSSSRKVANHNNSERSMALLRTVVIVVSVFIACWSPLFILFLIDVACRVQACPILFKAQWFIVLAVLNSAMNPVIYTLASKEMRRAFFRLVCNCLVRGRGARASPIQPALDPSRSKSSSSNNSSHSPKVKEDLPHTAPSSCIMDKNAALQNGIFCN

[6] = molecular target: T6, Edg-4 (Homo sapiens, UniProt Q9HBW0); assay: Calcium mobilization assay (FLIPR), inhibition of LPA-stimulated calcium increase; format: cell-based; settings: HTC cells expressing Edg-4
Target sequence in this assay (Q9HBW0 1-344 limits assumed): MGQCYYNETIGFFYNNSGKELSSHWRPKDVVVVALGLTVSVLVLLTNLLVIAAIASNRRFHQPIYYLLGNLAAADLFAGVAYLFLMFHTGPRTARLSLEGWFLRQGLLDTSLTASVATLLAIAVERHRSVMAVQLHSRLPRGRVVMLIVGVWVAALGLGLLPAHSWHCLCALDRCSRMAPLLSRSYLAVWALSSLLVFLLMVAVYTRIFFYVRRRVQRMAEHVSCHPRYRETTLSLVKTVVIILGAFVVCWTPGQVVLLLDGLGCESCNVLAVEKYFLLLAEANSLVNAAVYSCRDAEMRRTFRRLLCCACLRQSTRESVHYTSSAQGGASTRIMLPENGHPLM

[7] = molecular target: T7, human Edg 7 receptors (Homo sapiens, UniProt Q9UBY5); assay: Calcium mobilization assay (FLIPR), inhibition of LPA response; format: cell-based; settings: for IC50: HTC cells expressing human Edg 7; for Fold Selectivity: inhibitory selectivity for Edg-7 relative to other Edg receptors
T7 construct: expressed in transfected cells
T7 sequence (Q9UBY5 1-353): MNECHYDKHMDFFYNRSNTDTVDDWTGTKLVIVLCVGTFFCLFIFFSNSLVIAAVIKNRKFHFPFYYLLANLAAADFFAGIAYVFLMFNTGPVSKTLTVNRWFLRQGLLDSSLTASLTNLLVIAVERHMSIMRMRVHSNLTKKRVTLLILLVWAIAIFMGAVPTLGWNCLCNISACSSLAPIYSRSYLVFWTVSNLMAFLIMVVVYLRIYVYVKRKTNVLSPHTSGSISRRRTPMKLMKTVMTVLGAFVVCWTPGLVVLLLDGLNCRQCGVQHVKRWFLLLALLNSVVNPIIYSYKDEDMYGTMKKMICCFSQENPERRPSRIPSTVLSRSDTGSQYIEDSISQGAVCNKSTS
Experimental: (§1) The compounds were tested in HTC cells expressing human Edg 7 receptors. […] The compounds are tested in this recombinant system first, and subsequently tested in cell lines expressing Edg-7 (in addition to other Edg receptors).
The radioligand binding assays were conducted as described in Section 6.15 (Example 15).
(§2) LPA receptors such as Edg-7, couple to calcium effector pathways, and result in increases in intracellular calcium following receptor activation (An, 1998, J. Cell. Biochem Supp. 30-31:147-157). This biological response lends itself to a very efficient, high-throughput screen using a Fluorescence Imaging Plate Reader (FLIPR; Molecular Devices, Sunnyvale, Calif.). The FLIPR system is a real-time, cell-based assay system with continuous fluorescence detection using a cooled CCD camera. The FLIPR system was used to developing an Edg-7 receptor screen. Rat hepatoma cells stably expressing Edg-7 receptor were plated on 384-well plates and loaded with a calcium dye loading kit (Molecular Devices, Sunnyvale, Calif.) for 1 hour at room temperature. Cells were then placed on the FLIPR^384 (Molecular Devices, Sunnyvale, Calif.) and excited by an argon laser at […]. The data for the entire 384-well plate was updated every second. An integrated robotic pipettor allowed for simultaneous compound addition into each individual well in the plate

[8] = molecular target: T8, Edg-8 (Homo sapiens, UniProt Q9H228); assay: Calcium mobilization assay (FLIPR), inhibition of S1P-stimulated calcium increase; format: cell-based; settings: HTC cells expressing Edg-8
T8 construct: expressed in transfected cells; host or cells: HTC rat hepatoma cells
T8 sequence (Q9H228 whole entry): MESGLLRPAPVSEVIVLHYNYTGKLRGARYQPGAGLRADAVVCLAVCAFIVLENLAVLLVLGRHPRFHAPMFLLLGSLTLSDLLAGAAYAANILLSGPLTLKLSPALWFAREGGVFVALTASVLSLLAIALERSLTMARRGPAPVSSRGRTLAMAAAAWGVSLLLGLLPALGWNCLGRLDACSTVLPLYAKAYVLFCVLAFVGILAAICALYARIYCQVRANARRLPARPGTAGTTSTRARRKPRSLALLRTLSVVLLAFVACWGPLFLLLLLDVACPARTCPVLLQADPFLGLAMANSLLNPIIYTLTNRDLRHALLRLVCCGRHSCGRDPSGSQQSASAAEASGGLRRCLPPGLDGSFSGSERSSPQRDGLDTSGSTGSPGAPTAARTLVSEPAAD

[9] = molecular target: T8, Edg-8; assay: Calcium mobilization assay (FLIPR), agonist stimulation of calcium increase; format: cell-based; settings: HTC cells expressing Edg-8; for stimulation of calcium increases, Edg-8: concentrations as high as 25 µM
[10] = system: untransfected HTC cells; assay: Calcium mobilization assay (FLIPR), agonist stimulation in null cells; format: cell-based, rat; settings: for EC50: Rattus norvegicus; for stimulation of calcium increases, untransfected HTC cells: concentrations as high as 25 µM
[11] = molecular target: T7, human Edg 7 receptors; assay: Calcium mobilization assay (FLIPR), agonist stimulation of calcium increase; format: cell-based; settings: for EC50 / specific activation of the Edg-7 receptor: HTC cells expressing human Edg 7; for Fold Selectivity: agonist selectivity for Edg-7 relative to other Edg receptors and null cells
Experimental: as §1, §2

[12] = molecular target: T1, Edg-1; assay: as above; format: cell-based; settings: HTC cells expressing Edg-1; for stimulation of calcium increases, Edg-1: concentrations as high as 25 µM
[13] = molecular target: T6, Edg-4; assay: as above; format: cell-based; settings: HTC cells expressing Edg-4; for stimulation of calcium increases, Edg-4: concentrations as high as 25 µM
Target sequence in this assay (Q9HBW0 1-340 limits assumed): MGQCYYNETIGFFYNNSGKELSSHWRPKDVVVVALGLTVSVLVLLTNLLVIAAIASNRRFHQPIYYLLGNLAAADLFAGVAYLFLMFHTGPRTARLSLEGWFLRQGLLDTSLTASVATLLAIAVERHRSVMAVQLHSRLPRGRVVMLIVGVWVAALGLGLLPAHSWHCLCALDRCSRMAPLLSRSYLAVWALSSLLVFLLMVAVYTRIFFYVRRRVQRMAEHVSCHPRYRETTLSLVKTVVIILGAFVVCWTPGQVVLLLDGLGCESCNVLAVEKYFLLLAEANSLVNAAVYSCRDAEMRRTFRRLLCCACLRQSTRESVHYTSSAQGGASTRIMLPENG

[14] = molecular target: T5, Edg-3; assay: as above; format: cell-based; settings: HTC cells expressing Edg-3; for stimulation of calcium increases, Edg-3: concentrations as high as 25 µM
[15] = molecular target: T3, Edg-2; assay: as above; format: cell-based; settings: HTC cells expressing Edg-2; for stimulation of calcium increases, Edg-2: concentrations as high as 25 µM
[16] = molecular target: T4, Edg-6; assay: as above; format: cell-based; settings: HTC cells expressing Edg-6; for stimulation of calcium increases, Edg-6: concentrations as high as 25 µM
[17] = molecular target: T2, Edg-5; assay: as above; format: cell-based; settings: HTC cells expressing Edg-5; for stimulation of calcium increases, Edg-5: concentrations as high as 25 µM

T1 sequence (P21453 whole entry): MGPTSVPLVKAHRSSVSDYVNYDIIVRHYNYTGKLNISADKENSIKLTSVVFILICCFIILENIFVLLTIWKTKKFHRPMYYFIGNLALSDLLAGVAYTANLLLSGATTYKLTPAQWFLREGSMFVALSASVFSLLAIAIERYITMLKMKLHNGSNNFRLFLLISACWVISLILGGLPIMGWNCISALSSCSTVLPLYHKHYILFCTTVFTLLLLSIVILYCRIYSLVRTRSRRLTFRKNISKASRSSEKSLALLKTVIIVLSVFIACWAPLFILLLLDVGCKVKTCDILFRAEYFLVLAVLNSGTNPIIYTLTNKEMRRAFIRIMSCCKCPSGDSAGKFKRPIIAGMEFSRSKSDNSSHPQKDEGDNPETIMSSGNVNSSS

Row | SMILES | melting point | EC50 [9] [µM] | stimulation of calcium increases, Edg-8 [9] | EC50 [11] [µM] | specific activation of the Edg-7 receptor [11] | Fold Selectivity [11] [Fold] | EC50 [12] [µM] | stimulation of calcium increases, Edg-1 [12] | EC50 [13] [µM] | stimulation of calcium increases, Edg-4 [13] | EC50 [14] [µM] | stimulation of calcium increases, Edg-3 [14] | EC50 [15] [µM] | stimulation of calcium increases, Edg-2 [15] | EC50 [16] [µM] | stimulation of calcium increases, Edg-6 [16] | EC50 [17] [µM] | stimulation of calcium increases, Edg-5 [17] | EC50 [10] [µM] | stimulation of calcium increases, untransfected HTC cells [10] | further results
1 | CCCCCC(CCCCC)=N/N=C1\NC(=O)C(CC(=O)O)S1 (stereo not drawn) [Compound 127, 4-Oxo-2-[(1-pentylhexylidene)hydrazono]thiazolidin-5-ylacetic acid] | 134 to 135 °C | > 25 | did not stimulate | 0.23 | specifically activate | >109 | > 25 | did not stimulate | > 25 | did not stimulate | > 25 | did not stimulate | > 25 | did not stimulate | > 25 | did not stimulate | > 25 | did not stimulate | > 25 | did not stimulate | –
2 | Cc1cc(C)c2c(c1)Cc1ccccc1S2(=O)=O [Compound 133, 2,4-Dimethyl-9H-thioxanthene 10,10-dioxide] | 103 to 105 °C | > 25 | did not stimulate | 1.61 | specifically activate | >15.5 | > 25 | did not stimulate | > 25 | did not stimulate | > 25 | did not stimulate | > 25 | did not stimulate | > 25 | did not stimulate | > 25 | did not stimulate | > 25 | did not stimulate | –

The next lines start with results.

Row | melting point | EC50 [9] [µM] | stimulation of calcium increases, Edg-8 [9] | EC50 [11] [µM] | specific activation of the Edg-7 receptor [11] | Fold Selectivity [11] [Fold] | EC50 [12] [µM] | stimulation of calcium increases, Edg-1 [12] | EC50 [13] [µM] | stimulation of calcium increases, Edg-4 [13] | EC50 [14] [µM] | stimulation of calcium increases, Edg-3 [14] | EC50 [15] [µM] | stimulation of calcium increases, Edg-2 [15] | EC50 [16] [µM] | stimulation of calcium increases, Edg-6 [16] | EC50 [17] [µM] | stimulation of calcium increases, Edg-5 [17] | SMILES | EC50 [10] [µM] | stimulation of calcium increases, untransfected HTC cells [10] | further results
3 | 272 °C (dec.) | – | – | – | – | – | – | – | – | – | – | – | – | – | – | – | – | – | O=C(O)COc1ccc(Br)cc1/C=C1\S/C(=N\c2ccc(Cl)cc2)NC1=O (racemic) [Compound 107, 4-Bromo-2-[2-(4-chlorophenylimino)-4-oxothiazolidin-5-ylidenemethyl]phenoxyacetic acid] | – | – | IC50 [1]: > 20 µM; IC50 [2]: > 20 µM; IC50 [3]: > 20 µM; IC50 [4]: > 20 µM; IC50 [5]: > 20 µM; IC50 [6]: > 20 µM; IC50 [7]: 7.73 µM; Fold Selectivity [7]: >2.6 Fold; IC50 [8]: > 20 µM
4 | 320 °C (dec.) | – | – | – | – | – | – | – | – | – | – | – | – | – | – | – | – | – | Cc1ccc(S(=O)(=O)N=C2NC(=O)/C(=C3/C(=O)Nc4ccccc43)S2)cc1 [Compound 105, 4-Methyl-N-[4-oxo-5-(2-oxo-1,2-dihydroindol-3-ylidene)thiazolidin-2-ylidene]-benzenesulfonamide] | – | – | IC50 [1]: > 20 µM; IC50 [2]: > 20 µM; IC50 [3]: > 20 µM; IC50 [4]: > 20 µM; IC50 [5]: > 20 µM; IC50 [6]: > 20 µM; selective inhibition of the Edg-7 receptor (FIG. 1, FIG. 2) ([7]; HTC cells expressing Edg-7): exhibited selectivity; IC50 [7]: 0.52 µM; Fold Selectivity [7]: >38.5 Fold; IC50 [8]: > 20 µM
5 | 284 to 285 °C | > 25 | did not stimulate | 0.37 | specifically activate | >68 | > 25 | did not stimulate | > 25 | did not stimulate | > 25 | did not stimulate | > 25 | did not stimulate | > 25 | did not stimulate | > 25 | did not stimulate | COc1ccc(-c2nc3ccc(C(=O)O)cc3nc2-c2ccc(OC)cc2)cc1 [Compound 129, 2,3-bis-(4-Methoxyphenyl) quinoxaline-6-carboxylic acid] | > 25 | did not stimulate | –
